# Measured values taken from US11203587B2, “Thyroid hormone receptor beta agonist compounds” (Terns, Inc., priority 2018, dated 2021).
# Key:
# THR beta-LBD = biological target: T1, THR beta-LBD (Homo sapiens, UniProt P10828); test: LanthaScreen TR-FRET Thyroid Receptor beta Coactivator Assay; assay type: biochemical; settings: for THRβ-Selectivity: THR beta over THR alpha, derived from T3-selectivity normalized data; for EC50: TR-FRET coactivator assay, 2 hours incubation at room temperature, run in duplicate multiple times, average data, read-out: EC50 THRβ-FRET
# T1 construct: THR alpha-LBD (0.4 nM final concentration) or THR beta-LBD (1.0 nM final concentration) was added; purchased ThermoFisher
# T1 sequence (P10828 217-461 limits assumed): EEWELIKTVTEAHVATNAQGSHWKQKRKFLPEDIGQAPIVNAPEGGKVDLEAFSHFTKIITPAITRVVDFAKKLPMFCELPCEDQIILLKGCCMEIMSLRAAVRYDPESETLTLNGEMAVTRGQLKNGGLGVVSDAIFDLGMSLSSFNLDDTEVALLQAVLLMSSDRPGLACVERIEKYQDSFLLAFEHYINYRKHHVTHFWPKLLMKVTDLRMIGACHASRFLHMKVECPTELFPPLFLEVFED
# Procedure: LanthaScreen™ TR-FRET Thyroid Receptor alpha Coactivator Assay kit (ThermoFisher) and LanthaScreen™ TR-FRET Thyroid Receptor beta Coactivator Assay kit (ThermoFisher) were used for agonist compound screening. […] Buffer C (ThermoFisher) was added to each well before the 4× mixture of fluorescein-SCR2-2 coactivator (200 nM final concentration), Terbium-labeled anti-GST antibody (2 nM final concentration), and THR alpha-LBD (0.4 nM final concentration) or THR beta-LBD (1.0 nM final concentration) was added.
# THR alpha-LBD = biological target: T2, THR alpha-LBD (Homo sapiens, UniProt P10827); test: LanthaScreen TR-FRET Thyroid Receptor alpha Coactivator Assay; assay type: biochemical; settings: 2 hours incubation at room temperature, run in duplicate multiple times, average data, read-out: EC50 THRα-FRET
# T2 construct: THR alpha-LBD (0.4 nM final concentration) or THR beta-LBD (1.0 nM final concentration) was added; purchased ThermoFisher
# T2 sequence (P10827 163-410 isoform P10827-2 limits assumed, other chains not shown): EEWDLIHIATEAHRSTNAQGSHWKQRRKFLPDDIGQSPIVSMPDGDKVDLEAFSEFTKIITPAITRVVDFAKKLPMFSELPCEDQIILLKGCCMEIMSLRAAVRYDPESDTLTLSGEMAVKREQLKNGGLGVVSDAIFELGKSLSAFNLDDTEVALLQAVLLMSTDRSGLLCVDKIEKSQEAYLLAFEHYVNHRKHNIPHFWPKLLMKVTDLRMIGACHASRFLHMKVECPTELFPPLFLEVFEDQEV
# Procedure: Example B1: Time-Resolved Fluorescence Resonance Energy Transfer (TR-FRET) Assay for Thyroid Hormone Receptor Agonist Screening
# LanthaScreen™ TR-FRET Thyroid Receptor alpha Coactivator Assay kit (ThermoFisher) and LanthaScreen™ TR-FRET Thyroid Receptor beta Coactivator Assay kit (ThermoFisher) were used for agonist compound screening. Compounds in DMSO were diluted using ECHO Liquid Handler (Labcyte Inc.) into 384 plates in 10-point 3-fold series in duplicate (5 micro M final top concentration). Buffer C (ThermoFisher) was added to each well before the 4× mixture of fluorescein-SCR2-2 coactivator (200 nM final concentration), Terbium-labeled anti-GST antibody (2 nM final concentration), and THR alpha-LBD (0.4 nM final concentration) or THR beta-LBD (1.0 nM final concentration) was added. After 2 hours incubation at room temperature in the dark, the TR-FRET signal was measured on an EnVision plate reader (PerkinElmer) with excitation at 340 nm and dual emission readout at 495 and 520 nm with the delay time of 100 micro second and the integration time of 200 micro second. The ratio of emission signal at 520 and at 495 was used to calculate EC50 using GraphPad Prism (GraphPad Software). […] Compounds' THR-beta selectivity values in Table 2 are derived from T3-selectivity normalized data.
THRβ-Selectivity (THR beta-LBD; listed as 31 P1),EC50 (THR beta-LBD),EC50 (THR alpha-LBD),THRβ-Selectivity (THR beta-LBD),THRβ-Selectivity (THR beta-LBD; listed as 33 P1),THRβ-Selectivity (THR beta-LBD; listed as 33 P2),Compound
>26.2,1200 nM,> 5000 nM,,,,"C[C@@H](O)c1cc(Oc2c(Cl)cc(-c3nn(C)c(=O)[nH]c3=O)cc2Cl)n[nH]c1=O (single isomer, unassigned) [Compound 31 P1]"
,452 nM,3080 nM,21.7,,,"C[C@@H](O)c1cc(Oc2c(Cl)cc(-c3nn(C)c(=O)[nH]c3=O)cc2Cl)n[nH]c1=O (single isomer, unassigned) [Compound 31 P2]"
,696 nM,2430 nM,,11.3,,"CC[C@@H](C)c1cc(Oc2c(Cl)cc(-c3n[nH]c(=O)[nH]c3=O)cc2Cl)n[nH]c1=O (single isomer, unassigned) [Compound 33 P1]"
,65.7 nM,274 nM,,,14.1,"CC[C@@H](C)c1cc(Oc2c(Cl)cc(-c3n[nH]c(=O)[nH]c3=O)cc2Cl)n[nH]c1=O (single isomer, unassigned) [Compound 33 P2]"
,24.7 nM,79.2 nM,17,,,"CC(C)c1cc(Oc2c(Cl)cc(-c3n[nH]c(=O)[nH]c3=O)cc2Cl)nn(C)c1=O [Compound 1, 6-(3,5-dichloro-4-((5-isopropyl-1-methyl-6-oxo-1,6-dihydropyridazin-3-yl)oxy)phenyl)-1,2,4-triazine-3,5(2H,4H)-dione]"
,141 nM,681 nM,27.7,,,"CC(C)c1cc(Oc2c(Cl)cc(-c3n[nH]c(=O)[nH]c3=O)cc2Cl)n[nH]c1=O [Compound 2, 6-(3,5-dichloro-4-((5-isopropyl-6-oxo-1,6-dihydropyridazin-3-yl)oxy)phenyl)-1,2,4-triazine-3,5(2H,4H)-dione]"
,114 nM,1230 nM,69.8,,,"CC(C)c1cc(Oc2c(Cl)cc(-c3nn(C)c(=O)[nH]c3=O)cc2Cl)n[nH]c1=O [Compound 3, 6-(3,5-dichloro-4-((5-isopropyl-6-oxo-1,6-dihydropyridazin-3-yl)oxy)phenyl)-2-methyl-1,2,4-triazine-3,5(2H,4H)-dione]"
,> 5000 nM,> 5000 nM,>3.0,,,"CC(C)c1cc(Oc2c(Cl)cc(-c3nn(C(C)C)c(=O)[nH]c3=O)cc2Cl)n[nH]c1=O [Compound 4, 6-(3,5-dichloro-4-((5-isopropyl-6-oxo-1,6-dihydropyridazin-3-yl)oxy)phenyl)-2-isopropyl-1,2,4-triazine-3,5(2H,4H)-dione]"
,98.6 nM,62.6 nM,2.3,,,"Cc1c(-c2n[nH]c(=O)[nH]c2=O)cc(Cl)c(Oc2cc(C(C)C)c(=O)n(C)n2)c1Cl [Compound 5, 6-(3,5-dichloro-4-((5-isopropyl-1-methyl-6-oxo-1,6-dihydropyridazin-3-yl)oxy)-2-methylphenyl)-1,2,4-triazine-3,5(2H,4H)-dione]"
,196 nM,981 nM,23.6,,,"O=c1[nH]nc(-c2cc(Cl)c(Oc3cc(C4CC4)c(=O)[nH]n3)c(Cl)c2)c(=O)[nH]1 [Compound 6, 6-(3,5-dichloro-4-((5-cyclopropyl-6-oxo-1,6-dihydropyridazin-3-yl)oxy)phenyl)-1,2,4-triazine-3,5(2H,4H)-dione]"
,136 nM,435 nM,15.3,,,"CC(C)c1cc(C(=O)c2c(Cl)cc(-c3n[nH]c(=O)[nH]c3=O)cc2Cl)nn(C)c1=O [Compound 7, 6-(3,5-dichloro-4-(5-isopropyl-1-methyl-6-oxo-1,6-dihydropyridazine-3-carbonyl)phenyl)-1,2,4-triazine-3,5(2H,4H)-dione]"
,1450 nM,3670 nM,9.5,,,"CC(C)c1cc(C(=O)c2c(Cl)cc(-c3n[nH]c(=O)[nH]c3=O)cc2Cl)n[nH]c1=O [Compound 8, 6-(3,5-dichloro-4-(5-isopropyl-6-oxo-1,6-dihydropyridazine-3-carbonyl)phenyl)-1,2,4-triazine-3,5(2H,4H)-dione]"
,23.9 nM,161 nM,25.5,,,"CC(C)c1cc(Oc2c(Cl)cc(-c3nn(C)c(=O)[nH]c3=O)cc2Cl)nn(C)c1=O [Compound 9, 6-(3,5-dichloro-4-((5-isopropyl-1-methyl-6-oxo-1,6-dihydropyridazin-3-yl)oxy)phenyl)-2-methyl-1,2,4-triazine-3,5(2H,4H)-dione]"
,750 nM,> 5000 nM,>27.4,,,"CC(C)c1cc(C(=O)c2c(Cl)cc(-c3nn(C)c(=O)[nH]c3=O)cc2Cl)n[nH]c1=O [Compound 13, 6-(3,5-dichloro-4-(5-isopropyl-6-oxo-1,6-dihydropyridazine-3-carbonyl)phenyl)-2-methyl-1,2,4-triazine-3,5(2H,4H)-dione]"
,381 nM,3340 nM,31.2,,,"CC(C)c1cc(Cc2c(Cl)cc(-c3n[nH]c(=O)[nH]c3=O)cc2Cl)n[nH]c1=O [Compound 15, 6-(3,5-dichloro-4-((5-isopropyl-6-oxo-1,6-dihydropyridazin-3-yl)methyl)phenyl)-1,2,4-triazine-3,5(2H,4H)-dione]"
,163 nM,1210 nM,28.3,,,"CC(C)c1cc(Cc2c(Cl)cc(-c3nn(C)c(=O)[nH]c3=O)cc2Cl)n[nH]c1=O [Compound 16, 6-(3,5-dichloro-4-((5-isopropyl-6-oxo-1,6-dihydropyridazin-3-yl)methyl)phenyl)-2-methyl-1,2,4-triazine-3,5(2H,4H)-dione]"
,34.6 nM,99.6 nM,11.1,,,"CC(C)c1cc(Cc2c(Cl)cc(-c3n[nH]c(=O)[nH]c3=O)cc2Cl)nn(C)c1=O [Compound 17, 6-(3,5-dichloro-4-((5-isopropyl-1-methyl-6-oxo-1,6-dihydropyridazin-3-yl)methyl)phenyl)-1,2,4-triazine-3,5(2H,4H)-dione]"
,1410 nM,> 5000 nM,13.9,,,"CCn1nc(-c2cc(Cl)c(Oc3cc(C(C)C)c(=O)[nH]n3)c(Cl)c2)c(=O)[nH]c1=O [Compound 19, 6-(3,5-dichloro-4-((5-isopropyl-6-oxo-1,6-dihydropyridazin-3-yl)oxy)phenyl)-2-ethyl-1,2,4-triazine-3,5(2H,4H)-dione]"
,1930 nM,1330 nM,2.7,,,"CCOC(=O)Cn1nc(-c2cc(Cl)c(Oc3cc(C(C)C)c(=O)[nH]n3)c(Cl)c2)c(=O)[nH]c1=O [Compound 20, ethyl 2-(6-(3,5-dichloro-4-((5-isopropyl-6-oxo-1,6-dihydropyridazin-3-yl)oxy)phenyl)-3,5-dioxo-4,5-dihydro-1,2,4-triazin-2(3H)-yl)acetate]"
,2880 nM,> 5000 nM,>9.5,,,"CC(C)c1cc(Oc2c(Cl)cc(-c3nn(CC(F)(F)F)c(=O)[nH]c3=O)cc2Cl)n[nH]c1=O [Compound 21, 6-(3,5-dichloro-4-((5-isopropyl-6-oxo-1,6-dihydropyridazin-3-yl)oxy)phenyl)-2-(2,2,2-trifluoroethyl)-1,2,4-triazine-3,5(2H,4H)-dione]"
,1170 nM,3440 nM,12.9,,,"CC(C)c1cc(Oc2c(Cl)cc(-c3nn(CC#N)c(=O)[nH]c3=O)cc2Cl)n[nH]c1=O [Compound 22, 2-(6-(3,5-dichloro-4-((5-isopropyl-6-oxo-1,6-dihydropyridazin-3-yl)oxy)phenyl)-3,5-dioxo-4,5-dihydro-1,2,4-triazin-2(3H)-yl)acetonitrile]"
,1380 nM,3230 nM,9.2,,,"CC(C)c1cc(Oc2c(Cl)cc(-c3nn(CC(F)F)c(=O)[nH]c3=O)cc2Cl)n[nH]c1=O [Compound 23, 6-(3,5-dichloro-4-((5-isopropyl-6-oxo-1,6-dihydropyridazin-3-yl)oxy)phenyl)-2-(2,2-difluoroethyl)-1,2,4-triazine-3,5(2H,4H)-dione]"
